ChEMBL document CHEMBL1201862, “PubChem BioAssay data set” (2004)
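Cultured in 96-well plates, cells were exposed to test compound for 48 hours across five concentrations. GI50 is the concentration that inhibits growth by half.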 Activity calls are given as the source filed them. Rule as the data show it: active = GI50 up to about 1.1 µM and inactive = higher.

Key:
Assay in all cases: NCI anticancer screen, dose series, 48 h
A498 = tested on: A498
SNB-75 = tested on: SNB-75
SR = tested on: SR
RXF 393 = tested on: RXF 393
SNB-19 = tested on: SNB-19
HOP-62 = tested on: HOP-62
HCT-116 = tested on: HCT-116
MOLT-4 = tested on: MOLT-4
SN12C = tested on: SN12C
HT-29 = tested on: HT-29
HCT-15 = tested on: HCT-15
A549 = tested on: A549
OVCAR-5 = tested on: OVCAR-5
SF-539 = tested on: SF-539
COLO 205 = tested on: COLO 205
OVCAR-3 = tested on: OVCAR-3
OVCAR-4 = tested on: OVCAR-4
HCC 2998 = tested on: HCC 2998

| Structure (SMILES) | GI50 (A498) | GI50 (SNB-75) | GI50 (SR) | GI50 (RXF 393) | GI50 (SNB-19) | GI50 (HOP-62) | GI50 (HCT-116) | GI50 (MOLT-4) | GI50 (SN12C) | GI50 (HT-29) | GI50 (HCT-15) | GI50 (A549) | GI50 (OVCAR-5) | GI50 (SF-539) | GI50 (COLO 205) | GI50 (OVCAR-3) | GI50 (OVCAR-4) | GI50 (HCC 2998) |
| --- | --- | --- | --- | --- | --- | --- | --- | --- | --- | --- | --- | --- | --- | --- | --- | --- | --- | --- |
| OCCCNCc1ccccn1 | > 100 µM (inactive) | > 100 µM (inactive) | > 100 µM (inactive) | > 100 µM (inactive) | > 100 µM (inactive) | > 100 µM (inactive) | > 100 µM (inactive) | > 100 µM (inactive) | > 100 µM (inactive) | > 100 µM (inactive) | > 100 µM | > 100 µM (inactive) | > 100 µM (inactive) | > 100 µM (inactive) | > 100 µM (inactive) | > 100 µM (inactive) | > 100 µM (inactive) |  |
| CN(CC(=O)O)Cc1c[nH]c2ccccc12 | > 100 µM (inactive) | > 100 µM (inactive) | > 100 µM (inactive) | > 100 µM (inactive) | > 100 µM (inactive) | > 100 µM (inactive) | > 100 µM (inactive) | > 100 µM (inactive) | > 100 µM (inactive) | > 100 µM (inactive) | > 100 µM | > 100 µM (inactive) | > 100 µM (inactive) | > 100 µM (inactive) | > 100 µM (inactive) | > 100 µM (inactive) | > 100 µM (inactive) |  |
| O=c1c(Nc2ccccc2)cn(CCOc2ccccc2)c(=O)n1CCOc1ccccc1 | > 100 µM (inactive) |  | > 100 µM (inactive) | 48.4 µM (inactive) | 31.5 µM (inactive) | 17.2 µM (inactive) | > 100 µM (inactive) | > 100 µM (inactive) | > 100 µM (inactive) | > 100 µM (inactive) | > 100 µM | 91.8 µM (inactive) | 57.5 µM (inactive) |  | 69.3 µM (inactive) | 35.9 µM (inactive) | 19.8 µM (inactive) | 63.1 µM (inactive) |
| Cc1cc(=O)[nH]c(-n2[nH]c3c(c2=O)CCCC3)n1 | > 100 µM (inactive) | < 0.01 µM (active) | 63.1 µM (inactive) | 14.3 µM (inactive) | > 100 µM (inactive) |  | 41.9 µM (inactive) | 60.8 µM (inactive) | 77.8 µM (inactive) | 44.5 µM (inactive) | 31.3 µM | 72.1 µM (inactive) | 69 µM (inactive) | 88.5 µM (inactive) | 88.9 µM (inactive) |  | > 100 µM (inactive) |  |
| O=c1[nH]nc(Cc2ccc(Cl)cc2)n1O | > 100 µM (inactive) |  | > 100 µM (inactive) | > 100 µM (inactive) | > 100 µM (inactive) | > 100 µM (inactive) | > 100 µM (inactive) | > 100 µM (inactive) | > 100 µM (inactive) | > 100 µM (inactive) | > 100 µM | > 100 µM (inactive) | > 100 µM (inactive) | > 100 µM (inactive) | > 100 µM (inactive) | > 100 µM (inactive) | > 100 µM (inactive) | > 100 µM (inactive) |
| Cc1ccc2c(c1)CC1(Cc3cccc(C)c3C1=O)C2=O (stereo not given) | > 100 µM (inactive) | > 100 µM (inactive) | 79.8 µM (inactive) | > 100 µM (inactive) |  | > 100 µM (inactive) | 64 µM (inactive) | 42.6 µM (inactive) | > 100 µM (inactive) | 51.3 µM (inactive) | > 100 µM | > 100 µM (inactive) | 37.3 µM (inactive) | > 100 µM (inactive) | 85.3 µM (inactive) | > 100 µM (inactive) | 55.8 µM (inactive) | > 100 µM (inactive) |
| C/C(=C/CNc1ncnc2c1ncn2CCC#N)CO | > 100 µM (inactive) | > 100 µM (inactive) | > 100 µM (inactive) | > 100 µM (inactive) | > 100 µM (inactive) | > 100 µM (inactive) | > 100 µM (inactive) | > 100 µM (inactive) | > 100 µM (inactive) | > 100 µM (inactive) |  | > 100 µM (inactive) | > 100 µM (inactive) | > 100 µM (inactive) | > 100 µM (inactive) | > 100 µM (inactive) | > 100 µM (inactive) | > 100 µM (inactive) |
| Cn1/c(=N\S(=O)(=O)c2ccccc2)[nH]c2ccccc21 | > 100 µM (inactive) | > 100 µM (inactive) | > 100 µM (inactive) | > 100 µM (inactive) | > 100 µM (inactive) |  | > 100 µM (inactive) | > 100 µM (inactive) | > 100 µM (inactive) | > 100 µM (inactive) | > 100 µM | > 100 µM (inactive) | > 100 µM (inactive) | > 100 µM (inactive) | > 100 µM (inactive) |  | > 100 µM (inactive) | > 100 µM (inactive) |
| C1=N/CCNCCNCC/N=C/c2ccccc2OCc2cccc(n2)COc2ccccc2/1 | > 100 µM (inactive) | 67.9 µM (inactive) | 19.5 µM (inactive) | 30.3 µM (inactive) | 52.5 µM (inactive) | 35.2 µM (inactive) | 61 µM (inactive) | 27.4 µM (inactive) | 43.8 µM (inactive) | 25.6 µM (inactive) | 45.1 µM | > 100 µM (inactive) | > 100 µM (inactive) | 26.1 µM (inactive) | > 100 µM (inactive) | 30.1 µM (inactive) | 47 µM (inactive) |  |
| CC(C)(CO)CNc1nc(N)nc(Cl)c1C=O | > 100 µM (inactive) | 35.6 µM (inactive) | 17.5 µM (inactive) | 17.6 µM (inactive) |  | 23.2 µM (inactive) | 20 µM (inactive) | 19.8 µM (inactive) | 18.9 µM (inactive) | 45.2 µM (inactive) | 15.3 µM | 71.1 µM (inactive) | > 100 µM (inactive) | 54.2 µM (inactive) | 25.5 µM (inactive) | 25.6 µM (inactive) | 36.1 µM (inactive) | 4.51 µM (inactive) |
| CSC1=C(C#N)C(=O)N(c2ccc(C)cc2)C(=O)C1C#N (stereo not given) | 82.4 µM (inactive) |  | > 100 µM (inactive) | > 100 µM (inactive) | > 100 µM (inactive) | > 100 µM (inactive) | > 100 µM (inactive) | > 100 µM (inactive) | > 100 µM (inactive) | > 100 µM (inactive) | > 100 µM | > 100 µM (inactive) | > 100 µM (inactive) | > 100 µM (inactive) | > 100 µM (inactive) | > 100 µM (inactive) | > 100 µM (inactive) | > 100 µM (inactive) |
| O=C(O)c1ccc(OCc2nc3cc(C(F)(F)F)ccc3nc2-c2ccccc2)cc1 | > 100 µM (inactive) | 17.2 µM (inactive) | 11.5 µM (inactive) | 36.8 µM (inactive) | 73.8 µM (inactive) | 66.2 µM (inactive) | 36.9 µM (inactive) |  | 60.4 µM (inactive) | 32.1 µM (inactive) | 39.1 µM | 39.2 µM (inactive) | > 100 µM (inactive) | 32.1 µM (inactive) | 19.8 µM (inactive) | 34.8 µM (inactive) |  | 41.2 µM (inactive) |
| C=CCSC1=N/C(=C\c2ccc(C)cc2)C(=O)N1CC=C | 13.6 µM (inactive) |  | 11.5 µM (inactive) | 15.3 µM (inactive) | 32.4 µM (inactive) | 64.6 µM (inactive) | 18.4 µM (inactive) |  | 12.7 µM (inactive) | 13.9 µM (inactive) | 25.3 µM | 21.3 µM (inactive) | 25.4 µM (inactive) | 25.8 µM (inactive) | 20.6 µM (inactive) | 57.5 µM (inactive) | 27.3 µM (inactive) | 23.8 µM (inactive) |
| COC(=O)C12OC3CO[Si](C(C)C)(C(C)C)O[Si](C(C)C)(C(C)C)OC3C1Oc1nc(=O)ccn12 (stereo not given) | 23.7 µM (inactive) |  | 15 µM (inactive) | 16.6 µM (inactive) | 17.3 µM (inactive) | 18.1 µM (inactive) | 16.1 µM (inactive) | 12.1 µM (inactive) | 17.9 µM (inactive) | 15.4 µM (inactive) | 16.5 µM | 15.2 µM (inactive) | 15.2 µM (inactive) | 16.4 µM (inactive) | 18.7 µM (inactive) | 15.8 µM (inactive) | 17.1 µM (inactive) |  |
| C=C[C@@]1(C)CC2CC[C@]3(C)C(C)=CC(=O)CC3[C@]2(C)CC1O (stereo not given in full) | > 100 µM (inactive) |  | > 100 µM (inactive) | > 100 µM (inactive) | > 100 µM (inactive) | > 100 µM (inactive) | 91.4 µM (inactive) | 83.2 µM (inactive) | > 100 µM (inactive) | > 100 µM (inactive) | > 100 µM | > 100 µM (inactive) | > 100 µM (inactive) | > 100 µM (inactive) | 94.4 µM (inactive) | 67.3 µM (inactive) | > 100 µM (inactive) | > 100 µM (inactive) |
| CC(=O)Nc1ccc(S(=O)(=O)Nc2nnc(S(N)(=O)=O)s2)cc1 | > 100 µM (inactive) | > 100 µM (inactive) | > 100 µM (inactive) | > 100 µM (inactive) | > 100 µM (inactive) |  | > 100 µM (inactive) | > 100 µM (inactive) |  | > 100 µM (inactive) | > 100 µM | > 100 µM (inactive) | > 100 µM (inactive) | > 100 µM (inactive) | > 100 µM (inactive) |  | > 100 µM (inactive) | > 100 µM (inactive) |
| Oc1ccc(-c2nc3ccccc3s2)cc1 | 47.4 µM (inactive) | 37.4 µM (inactive) | 32.7 µM (inactive) | 24 µM (inactive) | 55.1 µM (inactive) | 37 µM (inactive) | 22.4 µM (inactive) | 25.8 µM (inactive) | 38 µM (inactive) | 42.3 µM (inactive) | 36 µM | 41.3 µM (inactive) | 49.8 µM (inactive) | 47.8 µM (inactive) | 45.1 µM (inactive) | 34.5 µM (inactive) | 48.1 µM (inactive) |  |
